From patent US9339038B2, “Herbicidal composition” (priority 2012, dated 2016)
Counter-ions that a name gives are not always drawn.

Columns and labels:
Assay type in all cases: in vivo
[1] = system: summer grass (Digitaria ciliaris (Retz.) Koeler); test: Test Example 7: foliar treatment of potted summer grass, visual growth inhibition rate on 7th day; conditions: 7th day after treatment
Procedure: (§1) Upland field soil was put into a 1/1,000,000 ha pot, and seeds of summer grass (Digitaria ciliaris (Retz.) Koeler) were sown. When the summer grass reached 4.0 to 5.0-leaf stage, predetermined amounts of EC formulation containing pyridate as an active ingredient and Monument WG (tradename) were diluted with water (in an amount corresponding to 300 L/ha) and applied for foliar treatment by a small sprayer.
(§2) On the 7th day after treatment, the state of growth of the summer grass was visually observed to determine the growth inhibition rate (%). The growth inhibition rate (%) (measured value) and the growth inhibition rate (%) calculated in the same manner as in the above Test Example 1 are shown in Table 7.

[2] = system: green kyllinga (Kyllinga brevifolia Rottb. var. leiolepis); test: Test Example 1: foliar treatment of potted green kyllinga in heading stage, visual growth inhibition rate
Description: When the herbicidal activity in a case where two active ingredients are combined, is larger than the simple sum of the respective herbicidal activities of the two active ingredients (the expected activity), it is called a synergistic effect. The activity expected by the combination of two active ingredients can be calculated as follows (Colby S. R., “Weed”, vol. 15, p. 20-22, 1967). E=(α+β)−(αβ)/100 where α: growth inhibition rate when treated with x (g/ha) of herbicide X,
β: growth inhibition rate when treated with y (g/ha) of herbicide Y,
E: growth inhibition rate expected when treated with x (g/ha) of herbicide X and y (g/ha) of herbicide Y.
That is, when the actual growth inhibition rate (measured value) is larger than the growth inhibition rate by the above calculation (calculated value), the activity by the combination can be regarded as showing a synergistic effect.
Upland field soil was put into a 1/1,000,000 ha pot, and rhizomes of green kyllinga (Kyllinga brevifolia Rottb. var. leiolepis) were planted. On the 59th day after planting, to the green kyllinga in heading stage, predetermined amounts of EC formulation containing pyridate as an active ingredient (tradename: Pyridate 600EC, manufactured by BCP), WG formulation containing flazasulfuron as an active ingredient (tradename: SHIBAGEN DF, manufactured by Ishihara Sangyo Kaisha, Ltd.), WG formulation containing trifloxysulfuron Na salt as an active ingredient (tradename: Monument WG, manufactured by Syngenta Japan K.K.), SC formulation containing nicosulfuron as an active ingredient (tradename: ONEHOPE NYUZAI, manufactured by Ishihara Sangyo Kaisha, Ltd.), WG formulation containing halosulfuron-methyl as an active ingredient (tradename: INPOOL DF, manufactured by Nissan Chemical Industries, Ltd.) and WG formulation containing chlorimuron-ethyl as an active ingredient (tradename: ATTRACTIVE, manufactured by MARUWA Biochemical Co., Ltd.) were diluted with water in an amount corresponding to 2,000 L/ha, and applied for foliar treatment by a small sprayer.
On the 14th day after treatment, the state of growth of the green kyllinga was visually observed to determine the growth inhibition rate (%) in accordance with the following evaluation standard. The growth inhibition rate (%) (measured value) and the growth inhibition rate (%) (calculated value) calculated by the Colby's formula are shown in Table 1.
Growth inhibition rate (%)=0 (equivalent to the non-treated area) to 100 (complete kill)

[3] = system: green kyllinga (Kyllinga brevifolia Rottb. var. leiolepis); test: Test Example 10: foliar treatment of green kyllinga (height 6 to 7 cm), visual growth inhibition rate; conditions: 27th day after treatment
Procedure: (§3) Upland field soil was put into a 1/1,000,000 ha pot, and rhizomes of green kyllinga (Kyllinga brevifolia Rottb. var. leiolepis) were planted. When the green kyllinga reached a height of from 6 to 7 cm, predetermined amounts of Lentagran WP (tradename) and WG formulation containing as an active ingredient amicarbazone having the same mode of action as pyridate (tradename: Dinamic, manufactured by Arysta Life Science) were diluted with water (in an amount corresponding to 2,000 L/ha) and applied for foliar treatment by a small sprayer. Separately, upland field soil was put into a 1/300,000 ha pot, and turf of manilagrass (Zoysia matrella (L.) Merr.) was put. After the manilagrass took root, predetermined amounts of Lentagran WP (tradename) and Dinamic (tradename) were diluted with water (in an amount corresponding to 2,000 L/ha) and applied for foliar treatment by a small sprayer.
(§4) On the 27th day after treatment, the state of growth of green kyllinga was visually observed, and on the 28th day after treatment, the state of growth of the manilagrass was visually observed, to determine the growth inhibition rate (%).

[4] = system: manilagrass (Zoysia matrella (L.) Merr.); test: Test Example 10: foliar treatment of manilagrass turf, visual growth inhibition rate (safety for turfgrass); conditions: for Growth inhibition rate (%) of manilagrass: foliar, 28th day after treatment
Procedure: as §3, §4

[5] = system: persian speedwell (Veronica persica Poir.); test: Test Example 6: foliar treatment of potted persian speedwell, visual growth inhibition rate; conditions: 14th day after treatment, read-out: Growth inhibition rate (%) of persian speedwell Measured value
Procedure: as §1, with “persian speedwell (Veronica persica Poir.)” for “summer grass (Digitaria ciliaris (Retz.) Koeler)”, “persian speedwell” for “summer grass”, “4.3” for “4.0”, “5.2-leaf” for “5.0-leaf”, “ONEHOPE NYUZAI” for “Monument WG”
as §2, with “14th” for “7th”, “persian speedwell” for “summer grass”, “6.” for “7.”

[6] = system: prickly sida (Sida spinosa L.); test: Test Example 2: foliar treatment of potted prickly sida, visual growth inhibition rate; conditions: 14th day after treatment, read-out: Growth inhibition rate (%) of prickly sida Measured value
Procedure: Upland field soil was put into a 1/1,000,000 ha pot, and seeds of prickly sida (Sida spinosa L.) were sown. When the prickly sida reached 5.5 to 5.8-leaf stage, predetermined amounts of a wettable powder containing pyridate as an active ingredient (tradename: Lentagran WP, manufactured by BCP) and ONEHOPE NYUZAI (tradename) were diluted with water in an amount of corresponding to 1,000 L/ha and applied for foliar treatment by a small sprayer.
as §2, with “14th” for “7th”, “prickly sida” for “summer grass”, “2.” for “7.”

[7] = system: green kyllinga (Kyllinga brevifolia Rottb. var. leiolepis); test: Test Example 5: autumn foliar treatment of green kyllinga, visual growth inhibition rate on 220th day; conditions: Cyperus brevifolius, 220th day after treatment
Procedure: (§5) Upland field soil was put into a 1/300,000 ha pot, and rhizomes of green kyllinga (Kyllinga brevifolia Rottb. var. leiolepis) were planted. In the autumn of the next year, a predetermined amount of EC formulation containing pyridate as an active ingredient was diluted with water (in an amount corresponding to 2,000 L/ha) and applied for foliar treatment by a small sprayer.
On the 220th day after treatment, the state of growth of the green kyllinga was visually observed to determine the growth inhibition rate (%).

[8] = system: green kyllinga (Kyllinga brevifolia Rottb. var. leiolepis); test: Test Example 4: single or repeated foliar treatment of green kyllinga (height 5 to 7 cm), visual growth inhibition rate; conditions: Cyperus brevifolius, 21st day after first treatment
Procedure: as §5, with “1/1,000,000” for “1/300,000”, “When” for “In”, “green kyllinga reached a height” for “autumn”, “from 5 to 7 cm,” for “the next year,”, “sprayer. Further, on the 7th day after the foliar treatment, second treatment was carried out in the same manner on part of the green kyllinga.” for “sprayer.”
On the 21st day after the first treatment, the state of growth of the green kyllinga was visually observed to determine the growth inhibition rate (%).

[9] = system: summer grass (Digitaria ciliaris (Retz.) Koeler); test: Test Example 8: foliar treatment of potted summer grass, visual growth inhibition rate on 14th day; conditions: read-out: Growth inhibition rate (%) of summer grass Measured value
Description: Upland field soil was put into a 1/1,000,000 ha pot, and seeds of summer grass (Digitaria ciliaris (Retz.) Koeler) were sown.

[10] = system: green kyllinga (Kyllinga brevifolia Rottb. var. leiolepis); test: Test Example 3: foliar treatment of green kyllinga at 5-leaf stage, visual growth inhibition rate; conditions: Cyperus brevifolius, 21st day after treatment
Procedure: as §5, with “1/1,000,000” for “1/300,000”, “When” for “In”, “green kyllinga reached 5-leaf stage,” for “autumn of the next year,”
On the 21st day after treatment, the state of growth of the green kyllinga was visually observed to determine the growth inhibition rate (%).

[11] = Cyperus brevifolius, read-out: Growth inhibition rate (%) of green kyllinga Measured value

With COc1cc(OC)nc(NC(=O)NS(=O)(=O)c2ncccc2OCC(F)(F)F)n1 [Trifloxysulfuron Na salt] the “Growth inhibition rate (%) of summer grass Measured value” ([1]; dose 100 g/ha) was 40% and the “Growth inhibition rate (%) of green kyllinga Measured value” ([2]; dose 45 g/ha, 14th day after treatment) was 15%.
For CC(C)c1nn(C(=O)NC(C)(C)C)c(=O)n1N [Amicarbazone, amicarbazone], the “Growth inhibition rate (%) of green kyllinga” value ([3]; dose 400 g/ha) was 30%, the “Growth inhibition rate (%) of green kyllinga” value ([3]; dose 800 g/ha) was 86% and the “Growth inhibition rate (%) of manilagrass” value ([4]; dose 800 g/ha) was 30%.
Work on CCOC(=O)c1ccccc1S(=O)(=O)NC(=O)Nc1nc(Cl)cc(OC)n1 [Chlorimuron-ethyl, chlorimuron-ethyl] yielded an inhibition at 100 g/ha [2, 11] of 18%.
COc1cc(OC)nc(NC(=O)NS(=O)(=O)c2ncccc2C(F)(F)F)n1 [Flazasulfuron, 1-(4,6-dimethoxypyrimidin-2-yl)-3-(3-trifluoromethyl-2-pyridylsulfonyl)urea] was tested, and the inhibition at 50 g/ha ([2]; Cyperus brevifolius, dose 50 g/ha, 14th day after treatment, read-out: Growth inhibition rate (%) of green kyllinga Measured value) was 33%.
With COc1cc(OC)nc(NC(=O)NS(=O)(=O)c2ncccc2C(=O)N(C)C)n1 [Nicosulfuron, 2-(4,6-dimethoxypyrimidin-2-ylcarbamoylsulfamoyl)-N,N-dimethylnicotinamide] the inhibition at 100 g/ha ([5]; dose 100 g/ha) was 5%, the inhibition at 15 g/ha ([6]; dose 15 g/ha) was 30% and the inhibition at 80 g/ha ([2]; Cyperus brevifolius, dose 80 g/ha, 14th day after treatment, read-out: Growth inhibition rate (%) of green kyllinga Measured value) was 15%.
For CCCCCCCCSC(=O)Oc1cc(Cl)nnc1-c1ccccc1 [Pyridate, O-6-chloro-3-phenylpyridazin-4-yl S-octylthiocarbonate], the inhibition at 300 g/ha ([5]; dose 300 g/ha) was 70%, the inhibition at 2000 g/ha ([3]; Cyperus brevifolius, dose 2000 g/ha) was 76% and the inhibition at 4000 g/ha ([3]; Cyperus brevifolius, dose 4000 g/ha) was 94%. The inhibition at 300 g/ha ([1]; Digitaria ciliaris, dose 300 g/ha, read-out: Growth inhibition rate (%) of summer grass Measured value) was 8%, the inhibition at 300 g/ha ([6]; dose 300 g/ha) was 38% and the inhibition at 500 g/ha ([2]; Cyperus brevifolius, dose 500 g/ha, 14th day after treatment, read-out: Growth inhibition rate (%) of green kyllinga Measured value) was 18%. For the same molecule, the inhibition at 2000 g/ha ([2]; Cyperus brevifolius, dose 2000 g/ha, 14th day after treatment, read-out: Growth inhibition rate (%) of green kyllinga Measured value) was 50%, the “Growth inhibition rate (%) of manilagrass” value ([4]; dose 2000 g/ha) was 5% and the “Growth inhibition rate (%) of manilagrass” value ([4]; dose 4000 g/ha) was 15%. The “Growth inhibition rate (%) of manilagrass” value ([4]; dose 8000 g/ha) was 15%, the safety for turfgrass ([4]; practical doses, summary of Table 9) was “high safety for turfgrass” and the inhibition at 2000 g/ha ([7]; dose 2000 g/ha) was 100%. For the same molecule, the inhibition at 4000 g/ha ([7]; dose 4000 g/ha) was 100%, the inhibition at 1200 g/ha ([8]; 1st treatment 1200 g/ha, 2nd treatment 1200 g/ha on 7th day) was 100% and the inhibition at 2400 g/ha ([8]; 1st treatment 2400 g/ha, no 2nd treatment) was 87%. For the same molecule, the inhibition at 3600 g/ha ([8]; 1st treatment 3600 g/ha, no 2nd treatment) was 89%, the inhibition at 3000 g/ha ([9]; dose 3000 g/ha, 14th day after treatment) was 50% and the inhibition at 1200 g/ha ([10]; dose 1200 g/ha) was 90%. The inhibition at 2400 g/ha ([10]; dose 2400 g/ha) was 100%.
Molecule COC(=O)c1c(Cl)nn(C)c1S(=O)(=O)NC(=O)Nc1nc(OC)cc(OC)n1 [Halosulfuron-methyl, halosulfuron-methyl] has an inhibition at 375 g/ha [2, 11] of 10% and an inhibition at 150 g/ha [9] of 0%.
